{"source": "paper PMC3600725", "about": "(CPT: Pharmacometrics & Systems Pharmacology, 2013)", "key": {"[1]": {"target": "MRP2 (Homo sapiens, UniProt Q92887)", "sequence (Q92887 whole entry)": "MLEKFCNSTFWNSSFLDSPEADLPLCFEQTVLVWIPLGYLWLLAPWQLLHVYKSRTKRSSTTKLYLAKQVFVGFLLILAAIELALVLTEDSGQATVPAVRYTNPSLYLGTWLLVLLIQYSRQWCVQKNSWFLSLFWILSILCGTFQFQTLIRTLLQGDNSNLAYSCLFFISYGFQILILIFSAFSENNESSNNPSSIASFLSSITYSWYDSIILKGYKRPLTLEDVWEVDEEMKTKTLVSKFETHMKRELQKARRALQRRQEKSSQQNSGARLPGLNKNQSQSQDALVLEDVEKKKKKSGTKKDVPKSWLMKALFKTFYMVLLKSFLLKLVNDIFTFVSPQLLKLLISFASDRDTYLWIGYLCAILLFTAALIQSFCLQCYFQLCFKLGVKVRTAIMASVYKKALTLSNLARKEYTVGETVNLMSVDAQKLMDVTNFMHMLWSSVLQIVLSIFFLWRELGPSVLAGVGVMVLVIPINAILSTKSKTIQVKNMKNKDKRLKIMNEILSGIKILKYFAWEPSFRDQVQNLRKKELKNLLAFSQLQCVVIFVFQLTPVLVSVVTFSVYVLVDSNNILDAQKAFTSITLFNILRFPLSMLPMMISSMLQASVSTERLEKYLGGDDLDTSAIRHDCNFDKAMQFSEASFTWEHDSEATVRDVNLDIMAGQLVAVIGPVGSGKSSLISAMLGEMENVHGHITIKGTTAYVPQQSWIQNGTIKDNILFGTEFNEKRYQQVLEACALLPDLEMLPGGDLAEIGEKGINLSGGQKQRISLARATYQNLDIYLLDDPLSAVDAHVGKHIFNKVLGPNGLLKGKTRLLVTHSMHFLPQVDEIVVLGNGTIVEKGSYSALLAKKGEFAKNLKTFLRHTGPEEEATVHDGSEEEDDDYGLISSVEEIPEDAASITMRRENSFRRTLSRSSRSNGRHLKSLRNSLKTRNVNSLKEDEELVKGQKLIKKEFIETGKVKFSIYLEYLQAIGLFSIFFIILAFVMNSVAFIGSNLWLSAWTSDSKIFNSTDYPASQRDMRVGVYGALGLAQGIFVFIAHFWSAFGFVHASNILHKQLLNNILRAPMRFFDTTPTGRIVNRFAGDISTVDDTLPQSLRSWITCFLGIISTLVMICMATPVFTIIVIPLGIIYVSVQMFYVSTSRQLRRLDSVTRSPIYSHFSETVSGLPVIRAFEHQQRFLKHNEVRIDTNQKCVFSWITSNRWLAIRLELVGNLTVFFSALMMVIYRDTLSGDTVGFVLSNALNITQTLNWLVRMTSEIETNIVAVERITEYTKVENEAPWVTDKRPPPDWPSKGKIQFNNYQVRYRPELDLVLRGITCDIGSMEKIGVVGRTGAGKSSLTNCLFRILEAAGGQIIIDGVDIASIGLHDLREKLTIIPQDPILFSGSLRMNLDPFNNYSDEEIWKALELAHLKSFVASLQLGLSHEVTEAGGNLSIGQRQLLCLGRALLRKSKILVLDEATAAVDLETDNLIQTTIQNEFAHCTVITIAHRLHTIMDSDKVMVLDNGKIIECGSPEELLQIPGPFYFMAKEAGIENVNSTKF", "settings": "50 µmol/l MK571; cited from earlier work"}, "[2]": {"tested_on": "human sandwich-cultured hepatocytes (SCH)", "experiment": "Accumulation, BEI and in vitro clearance in human SCH", "type": "in vitro ADME"}, "[3]": {"experiment": "Estimated portal vein concentration of ritonavir", "design": "species or system human"}, "[4]": {"settings": "cited from earlier work"}, "[5]": {"type": "in vivo, human"}, "[6]": {"settings": "cited from earlier work", "remark": "listed apart in the source"}, "[7]": {"settings": "2 × 300 mg oral ritonavir 14 and 2 h before, mean ± SD, n = 3"}, "[8]": {"settings": "^99mTc–mebrofenin alone (control), mean ± SD, n = 8"}, "[9]": {"settings": "from human SCH data, well-stirred model, mean ± SD of n=3 donors"}}, "note": "“Also recorded” adds a separate entry of the source. Like-named read-outs stand apart in the source and are kept apart here.", "data": [{"smiles": "CN(C)C(=O)CCSC(SCCC(=O)O)c1cccc(/C=C/c2ccc3ccc(Cl)cc3n2)c1", "note": "(stereo not shown) [MK571]", "values": [{"measurement": "Reduction of ATP-dependent transport of ^99mTc–mebrofenin (MRP2 vesicles)", "setting": "[1]", "value": "88 ± 2", "unit": "%"}]}, {"smiles": "CC(C)c1nc(CN(C)C(=O)N[C@H](C(=O)N[C@@H](Cc2ccccc2)C[C@H](O)[C@H](Cc2ccccc2)NC(=O)OCc2cncs2)C(C)C)cs1", "note": "[Ritonavir]", "values": [{"measurement": "Total cellular accumulation of ritonavir (Ccell,total)", "setting": "[2]; human SCH", "value": "up to 100 µmol/l"}, {"measurement": "Maximum estimated portal vein concentration", "setting": "[3]", "value": "up to 45 µmol/l"}]}, {"smiles": "Cc1cc(C)c(NC(=O)CN(CC(=O)[O-])CC(=O)[O-])c(C)c1Br.Cc1cc(C)c(NC(=O)CN(CC(=O)[O-])CC(=O)[O-])c(C)c1Br.[99Tc+4]", "note": "[^99mTc–mebrofenin, ^99mTechnetium–mebrofenin]", "values": [{"measurement": "Hepatic elimination half-life, previous reports", "setting": "[4]", "value": "~ 15 min"}, {"measurement": "Time of maximum liver concentration, reported value", "setting": "[4]", "value": 11, "unit": "min"}, {"measurement": "AUC0–∞ (blood)", "setting": "[5]; [7]", "value": "4,464 ± 1,861 nCi·min/ml"}, {"measurement": "Biliary recovery", "setting": "[5]; [7]", "value": "72 ± 2", "unit": "% Dose"}, {"measurement": "Change in AUCblood,0-∞ (systemic exposure)", "setting": "[5]; 2 × 300 mg ritonavir as compared with control", "value": "significantly greater, by approximately twofold; also recorded: twofold increase"}, {"measurement": "Biliary recovery", "setting": "[5]; 2 h after single 200 mg oral ritonavir, mean ± SD, n = 7", "value": "59 ± 11", "unit": "% Dose"}, {"measurement": "AUC0–∞ (blood)", "setting": "[5]; [8]", "value": "1,970 ± 311 nCi·min/ml"}, {"measurement": "Biliary recovery", "setting": "[5]; [8]", "value": "75 ± 12", "unit": "% Dose"}, {"measurement": "CLbiliary", "setting": "[5]; [8]", "value": "12.5 ± 2.5", "unit": "mL/min/kg"}, {"measurement": "Urinary recovery", "setting": "[5]; all groups, unaffected by ritonavir treatment", "value": "~ 1 % of the administered dose"}, {"measurement": "Hepatic extraction ratio (CLtotal/Qh)", "setting": "[5]; control subjects, mean ± SD", "value": "0.80 ± 0.16"}, {"measurement": "CLbiliary, Predicted In Vivo Clearance", "setting": "[2]; [9]", "value": "4.4 ± 1.5", "unit": "mL/min/kg"}, {"measurement": "CLuptake, Predicted In Vivo Clearance", "setting": "[2]; [9]", "value": "10.6 ± 3.1", "unit": "mL/min/kg"}, {"measurement": "In vitro intrinsic CLuptake lower than semi-PBPK CLuptake,h", "setting": "[2]; human SCH vs Table 2 estimate", "value": "~ 50 fold"}, {"measurement": "CLuptake, In Vitro Intrinsic Clearance", "setting": "[2]; human SCH, mean ± SD of n=3 donors", "value": "~ 24 mL/min/kg"}, {"measurement": "Hepatic extraction, previous reports", "setting": "[6]", "value": "~ 100%"}]}]}
